The values below come from US11992497B2 (priority 2021, dated 2024).

The structures appear in SMILES notation. Where two headings read alike, the source gives them in different places.

The nature of data set [1]: Hepatocyte stability and metabolite profiling. The settings on record: cryopreserved hepatocytes in suspension; Mouse cryopreserved hepatocytes. The data set is classed as in vitro ADME. The protocol: (§1) The objective of this study was to investigate the stability of the test compound, CBG, in human, rat, dog, mouse, monkey and minipig cryopreserved hepatocytes. Follow-on metabolite profiling was performed.
(§2) CBG was incubated up to 2 hr with cryopreserved hepatocytes. Cryopreserved hepatocytes in suspension were added to test compound in supplemented media following pre-incubation to initiate the reaction and the reactions were stopped by organic solvent at the appropriate time points. The termination plates were centrifuged and sample supernatants were analysed using Cyprotex generic LC MS/MS conditions to generate intrinsic clearance values for CBG. Two control compounds for each species were included in the assay and if the values for these compounds were not within the specified limits the results were rejected and the experiment repeated.
Following the hepatocyte stability assay the samples were 59tilized for metabolite profiling using suitable high-resolution LC-MS/MS conditions. The 40 and 60 minute human samples, 20 and 120 minute rat samples, 10 and 20 minute dog and monkey samples, 20 and 60 minute mouse samples, and 40 and 120 minute minipig samples were compared against the 0 minute control sample to establish which and how many metabolites were formed. […]
The areas and percentages reported for the parent and metabolites were calculated using the XIC data. […]

Data set [2] can be described thus: Quantification of CBG in rat brain tissue (LC-MS/MS). The data set is classed as in vivo, Sprague-Dawley rat. To be noted: for concentration at 24 h: Sprague-Dawley, rat, brain, oral. How it is done:
The purpose of this study was to quantify cannabigerol (CBG) in rat plasma and brain.
Seven- to nine-week-old male and female Sprague-Dawley received either a single dose or once daily dosing for 21 days of vehicle or CBG at three different dosage levels as shown in the Table below.
Approximately 0.2-0.25 mL blood was collected during the first 24 hours after the single dose, and at multiple times points after the terminal dose for the animals receiving daily dosing for 21 days. Liver, kidney, and colon samples were collected and fixed in 10% NBF for 48 hours, then stored in 70% ethanol at room temperature. Brain samples were collected and flash frozen.
Analytical curves were constructed using non-zero standards with CBG concentration ranging from 0.0025 to 2.500 μg/mL and 2.500-100.0 μg/mL in blank rat plasma samples and 1.0 to 2500 ng/mL in blank brain tissues. A blank sample was used to exclude contamination.
Instrument Used: AB SCIEX QTRAP 4500/Shimadzu Prominence LC

For data set [3], the system named is cryopreserved hepatocytes. Briefly: Hepatocyte stability and metabolite profiling. The settings on record: human hepatocyte samples. The data set is classed as in vitro ADME, human. How it is done:
as §1, §2
(§3) Following the hepatocyte stability assay the samples were 59tilized for metabolite profiling using suitable high-resolution LC-MS/MS conditions. The 40 and 60 minute human samples, 20 and 120 minute rat samples, 10 and 20 minute dog and monkey samples, 20 and 60 minute mouse samples, and 40 and 120 minute minipig samples were compared against the 0 minute control sample to establish which and how many metabolites were formed. […] No further analysis was carried out with the mouse species.
(§4) The areas and percentages reported for the parent and metabolites were calculated using the XIC data. Metabolite observed at greater than 1% of the total of drug related material are reported. […] For accuracy, a ppm error of less than 5 is desirable; when the response for a metabolite observed is low the ppm error maybe greater than 5. Where a metabolite has been referred to as a potential oxidation it can refer to a potential hydroxylation, epoxidation or oxide formation. Representative collision induced dissociation (CID) mass spectra were obtained for the metabolites found.

Data set [4] in a line: Hepatocyte stability and metabolite profiling. It counts as in vitro ADME, human. The settings on record: cryopreserved hepatocytes in suspension; Human cryopreserved hepatocytes. How it is done: as §1, §2, §3, §4
The test system of data set [5] is lipopolysaccharide (LPS)-induced inflammation. The data set can be described thus: Rat LPS model, serum pro-inflammatory cytokines. The settings on record: oral, 4 days; 2 h after LPS. The data set is classed as in vivo, Sprague Dawley rats. How it is done:
This assay was employed to determine the efficacies of CBG, compound 1, and compound 2 against lipopolysaccharide (LPS)-induced inflammation in Sprague Dawley rats.
Eight- to 10-week-old male rats were treated with CBG, Compound 1, and Compound 2, or a positive control (cyclosporin A) for four days prior to treatment with LPS. Twenty-eight (28) Sprague Dawley male rats, 8-10 weeks old, were used for this study. Animals were randomized by weight into one of 7 treatment groups as shown in Table 10 below and treated for 4 days with either vehicle control (Groups 1 and 2), Cyclosporin A (Neoral) (Group 3), CBG at 30 mg/kg (Group 4), Compound 1 at 31.5 mg/kg (Group 5), Compound 2 at 32.7 mg/kg (Group 6) or CBG at 30 mg/kg (intraperitoneal/IP; Group 7). Groups 1-6 were dosed for 4 days by oral gavage; group 7 was dosed for 4 days by IP injection. After the 4th injection, Groups 2-7 received a single IP injection of LPS at 5 mg/kg to induce inflammation. Body weight was recorded every other day starting on the day of or day prior to the first day of treatment. A terminal body weight was recorded. General health and clinical signs were recorded once daily. Blood was collected to isolate immune cells at 2 hours after the LPS injection. […]
Serum samples (N=82) were processed and shipped to Inotiv Boulder for analysis. […] The samples were analyzed for cytokine levels using the RECYTMAG-65K Luminex™ kit. […]

For `CCCCCc1cc(O)c(C/C=C(\C)CCC=C(C)C)c(O)c1` [CBG, cannabigerol], the results for the half-life in data set [1] and in data set [4] were 42.2 min and 22.6 min, respectively. The hepatocyte CLint in data set [1] stood at 32.8 µL/min/1e6 cells; in data set [4] it was 61.4 µL/min/1e6 cells. In addition, the “CBG concentration in rat brain tissue (Day 21)” value in data set [2] (CBG 10 mg/kg oral gavage once daily, 24 hrs post Rx) is recorded as “BLQ (BLQ—Below Limit of Quantification (1.0 ng/g))”. The concentration at 24 h in data set [2] (both sexes, 30 mg/kg, CBG 30 mg/kg oral gavage once daily, 24 hrs post Rx, read-out: CBG concentration in rat brain tissue (Day 21)) is 43.8 ng/g; in data set [2] (female, 100 mg/kg, CBG 100 mg/kg once daily, 24 hrs post Rx, female rats, read-out: CBG concentration in rat brain tissue (Day 21), Average), 299 ng/g; in data set [2] (male, 100 mg/kg, CBG 100 mg/kg once daily, 24 hrs post Rx, male rats, read-out: CBG concentration in rat brain tissue (Day 21), Average), 540 ng/g. For the same molecule, the “CBG in brain (in words)” value in data set [2] (oral CBG, Day 21) is given as “not detected”. Further, the “number of metabolites observed” value in data set [3] was “Seven”.

Turning to `CCCCCc1cc(OC)c(C/C=C(\C)CCC=C(C)C)c(OC)c1` [Compound 2, (E)-2-(3,7-dimethylocta-2,6-dien-1-yl)-1,3-dimethoxy-5-pentylbenzene], in data set [5], the “reduction of IL-1B and IFNy relative to CBG (in words)” value is given as “equal to or better than CBG”.
